# Reference: ChEMBL document CHEMBL1126863 (J Med Chem, 1993)
# Square brackets hold non-standard residues; d marks the D form. Peptide text beside a SMILES is read from it. pGlu = O=C1CC[C@@H](C(=O)O)N1
# Assays:
# Substance-P receptor [1] = target: T1, Substance-P receptor (Cavia porcellus, UniProt P30547); assay: Evaluated for the binding affinity towards NK1 receptor in the striatal membranes of guinea pig; format: cell membranes, Striatum, Membrane
# [2] = target: Substance-P receptor (Cavia porcellus) (UniProt P30547); assay: Evaluated for the binding affinity against NK1 receptor
# Target sequence in this assay (P30547 whole entry, looked up): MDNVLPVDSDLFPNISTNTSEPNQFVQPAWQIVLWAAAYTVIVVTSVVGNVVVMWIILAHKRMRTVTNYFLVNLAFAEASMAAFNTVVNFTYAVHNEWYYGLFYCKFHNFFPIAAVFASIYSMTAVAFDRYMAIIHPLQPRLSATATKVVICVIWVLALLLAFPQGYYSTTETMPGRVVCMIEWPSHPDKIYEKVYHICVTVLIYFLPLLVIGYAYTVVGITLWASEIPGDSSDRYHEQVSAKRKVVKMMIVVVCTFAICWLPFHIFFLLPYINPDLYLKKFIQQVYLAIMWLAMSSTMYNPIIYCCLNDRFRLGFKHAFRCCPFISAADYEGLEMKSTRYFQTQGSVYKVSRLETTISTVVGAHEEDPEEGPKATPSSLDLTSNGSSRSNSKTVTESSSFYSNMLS
# Substance-P receptor [3] = target: T1, Substance-P receptor; assay: Evaluated for the binding affinity against NK1 receptor
# [4] = target: Substance-P receptor (Cavia porcellus) (UniProt P30547); conditions: Striatum, Membrane, 10 uM
# Target sequence in this assay (P30547 whole entry): as the sequence (P30547 whole entry, looked up) above
# Description: Evaluated for the binding affinity towards NK1 receptor in the striatal membranes of guinea pig at 10 uM
# [5] = target: Substance-P receptor (Cavia porcellus) (UniProt P30547); assay: Evaluated for the binding affinity against NK1 receptor at 1 uM
# Target sequence in this assay (P30547 whole entry, looked up): as above
# T1 sequence (P30547 whole entry): as the sequence (P30547 whole entry, looked up) above
smiles,measurement,setting,value
COc1ccccc1CN[C@H]1CCCN[C@H]1c1ccccc1 (stereo in doubt; 6b) [CP-99994],Ki,Substance-P receptor [1],0.27 nM
COc1ccccc1CN[C@H]1CCCN[C@H]1c1ccccc1 (stereo in doubt; 5) [CP-99994],Ki,Substance-P receptor [1],0.17 nM
CSCC[C@H](NC(=O)[C@H](CC(C)C)NC(=O)CNC(=O)[C@@H](NC(=O)[C@H](Cc1ccccc1)NC(=O)[C@H](CO)NC(=O)[C@H](CC(=O)O)NC(=O)[C@@H](NC(=O)[C@H](CCCCN)NC(=O)[C@@H](N)Cc1cnc[nH]1)[C@@H](C)O)C(C)C)C(N)=O [NEUROKININ A],Ki,[2],3700 nM
CC(C)C[C@H](NC(=O)CN(C)C(=O)[C@H](Cc1ccccc1)NC(=O)[C@H](Cc1ccccc1)NC(=O)[C@H](CCC(N)=O)NC(=O)[C@H](CCC(N)=O)NC(=O)[C@@H]1CCCN1C(=O)[C@H](CCCCN)NC(=O)[C@@H]1CCCN1C(=O)[C@@H](N)CCCNC(=N)N)C(=O)N[C@@H](CCS(C)(=O)=O)C(N)=O,Ki,Substance-P receptor [3],20 nM
COc1ccccc1CN[C@@H]1CCCN[C@@H]1c1ccccc1,inhibition,[4],50%
[3H]c1cc([3H])cc([C@@H]2NCCC[C@@H]2NCc2ccccc2OC)c1,Kd,Substance-P receptor [1],0.32 nM
CC[C@H](C)[C@H](NC(=O)[C@H](Cc1ccccc1)NC(=O)[C@H](C)NC(=O)[C@H](CC(=O)O)NC(=O)[C@H](CCCCN)NC(=O)[C@H](CO)NC(=O)[C@@H]1CCCN1C(=O)[C@@H]1CCC(=O)N1)C(=O)NCC(=O)N[C@@H](CC(C)C)C(=O)N[C@@H](CCSC)C(N)=O ([pGlu]PSKDAFIGLM-NH2),inhibition,[5],15%
